In PubChem BioAssay AID1918956 (Molecular Pharmacology Branch, DTP, NCI, 2023):
Values joined by “and” are separate entries in the source; they are usually repeats but may differ in a detail not shown here. Identical values can stand only once.

Tested on: OVCAR-5 complex spheroids, viability
Assay: Anticancer human tumor OVCAR-5 cell line growth inhibition;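 also: spheroids exposed to agents for seven days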;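 as to viability, T/C: 100% = DMSO vehicle control wells viability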
Conditions: for viability, T/C: stronger effect = lower value
Summary of the method: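 Multicellular complex spheroids of tumor cells with human endothelial cells (HUVEC) and mesenchymal stem cells; the LSD1 inhibitor iadademstat was combined with standard-of-care or investigational agents. Top concentration at or near clinical Cmax, half-log dilutions; final DMSO ≤0.25%.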

[1] = curve of first compound, second compound 0.1 µM
[2] = curve of first compound, second compound 0.316 µM
[3] = curve of first compound, second compound 1 µM
[4] = curve of first compound, second compound 3.16 µM
[5] = curve of first compound, second compound 10 µM

With CCc1c2c(nc3ccc(O)cc13)-c1cc3c(c(=O)n1C2)COC(=O)[C@]3(O)CC + NC1CC1c1ccc(-c2cccc(O)c2)cc1 the IC50 [1] was under 0.949 nM, the IC50 [2] was under 0.949 nM and the IC50 [3] was under 0.949 nM. For the same compound, the IC50 [4] was under 0.949 nM, the IC50 [5] was under 0.949 nM and the viability, T/C (second compound 0.1 µM, first compound 0.000949 µM) was 33%. It also gave a viability, T/C (second compound 0.1 µM, first compound 0.003 µM) of 17.4%, a viability, T/C (second compound 0.1 µM, first compound 0.00949 µM) of 7.17% and a viability, T/C (second compound 0.1 µM, first compound 0.03 µM) of 2.96%. For the same compound, the viability, T/C (second compound 0.1 µM, first compound 0.0949 µM) was 0.9%, the viability, T/C (second compound 0.1 µM, first compound 0.3 µM) was 0.46% and the viability, T/C (second compound 0.316 µM, first compound 0.000949 µM) was 31.7%. The viability, T/C (second compound 0.316 µM, first compound 0.003 µM) was 18.4%, the viability, T/C (second compound 0.316 µM, first compound 0.00949 µM) was 7.68% and the viability, T/C (second compound 0.316 µM, first compound 0.03 µM) was 2.91%. For the same compound, the viability, T/C (second compound 0.316 µM, first compound 0.0949 µM) was 0.78%, the viability, T/C (second compound 0.316 µM, first compound 0.3 µM) was 0.44% and the viability, T/C (second compound 1 µM, first compound 0.000949 µM) was 31.3%. It also gave a viability, T/C (second compound 1 µM, first compound 0.003 µM) of 18%, a viability, T/C (second compound 1 µM, first compound 0.00949 µM) of 7.01% and a viability, T/C (second compound 1 µM, first compound 0.03 µM) of 3.01%. It also gave a viability, T/C (second compound 1 µM, first compound 0.0949 µM) of 0.61%, a viability, T/C (second compound 1 µM, first compound 0.3 µM) of 0.46% and a viability, T/C (second compound 3.16 µM, first compound 0.000949 µM) of 32.2%. It also gave a viability, T/C (second compound 3.16 µM, first compound 0.003 µM) of 18.7%, a viability, T/C (second compound 3.16 µM, first compound 0.00949 µM) of 8.72% and a viability, T/C (second compound 3.16 µM, first compound 0.03 µM) of 4.14%. It also gave a viability, T/C (second compound 3.16 µM, first compound 0.0949 µM) of 0.87%, a viability, T/C (second compound 3.16 µM, first compound 0.3 µM) of 0.58% and a viability, T/C (second compound 10 µM, first compound 0.000949 µM) of 34%. It also gave a viability, T/C (second compound 10 µM, first compound 0.003 µM) of 19.9%, a viability, T/C (second compound 10 µM, first compound 0.00949 µM) of 8.18% and a viability, T/C (second compound 10 µM, first compound 0.03 µM) of 4.37%. For the same compound, the viability, T/C (second compound 10 µM, first compound 0.0949 µM) was 0.68% and the viability, T/C (second compound 10 µM, first compound 0.3 µM) was 0.41%.

For COc1cc(Nc2ncc3c(n2)-c2ccc(Cl)cc2C(c2c(F)cccc2OC)=NC3)ccc1C(=O)O, the viability, T/C (compound 0.00316 µM) was 94.1% and 95.2%, the viability, T/C (compound 0.01 µM) was 88.5% and 86.9% and the viability, T/C (compound 0.0316 µM) was 74.8% and 74.2%. The viability, T/C (compound 0.1 µM) was 59.8% and 52.2%, the viability, T/C (compound 0.316 µM) was 57% and 49% and the viability, T/C (compound 1 µM) was 53.1% and 49.2%. The IC50 (curve of compound) was > 1000 nM and 250 nM.

O=C(c1cc(Cc2n[nH]c(=O)c3ccccc23)ccc1F)N1CCN(C(=O)C2CC2)CC1 + NC1CC1c1ccc(-c2cccc(O)c2)cc1 was tested, and the IC50 [1] was over 10000 nM, the IC50 [2] was over 10000 nM and the IC50 [3] was over 10000 nM. The IC50 [4] was over 10000 nM, the IC50 [5] was over 10000 nM and the viability, T/C (second compound 0.1 µM, first compound 0.0316 µM) was 97.6%. For the same compound, the viability, T/C (second compound 0.1 µM, first compound 0.1 µM) was 112%, the viability, T/C (second compound 0.1 µM, first compound 0.316 µM) was 102% and the viability, T/C (second compound 0.1 µM, first compound 1 µM) was 88%. It also gave a viability, T/C (second compound 0.1 µM, first compound 3.16 µM) of 76.9%, a viability, T/C (second compound 0.1 µM, first compound 10 µM) of 74.9% and a viability, T/C (second compound 0.316 µM, first compound 0.0316 µM) of 114%. The viability, T/C (second compound 0.316 µM, first compound 0.1 µM) was 104%, the viability, T/C (second compound 0.316 µM, first compound 0.316 µM) was 99.4% and the viability, T/C (second compound 0.316 µM, first compound 1 µM) was 93.7%. It also gave a viability, T/C (second compound 0.316 µM, first compound 3.16 µM) of 85.3%, a viability, T/C (second compound 0.316 µM, first compound 10 µM) of 73.8% and a viability, T/C (second compound 1 µM, first compound 0.0316 µM) of 94.9%. It also gave a viability, T/C (second compound 1 µM, first compound 0.1 µM) of 105%, a viability, T/C (second compound 1 µM, first compound 0.316 µM) of 93.7% and a viability, T/C (second compound 1 µM, first compound 1 µM) of 81.2%. For the same compound, the viability, T/C (second compound 1 µM, first compound 3.16 µM) was 81.5%, the viability, T/C (second compound 1 µM, first compound 10 µM) was 72.3% and the viability, T/C (second compound 3.16 µM, first compound 0.0316 µM) was 97.9%. The viability, T/C (second compound 3.16 µM, first compound 0.1 µM) was 86.9%, the viability, T/C (second compound 3.16 µM, first compound 0.316 µM) was 96.9% and the viability, T/C (second compound 3.16 µM, first compound 1 µM) was 83%. For the same compound, the viability, T/C (second compound 3.16 µM, first compound 3.16 µM) was 71%, the viability, T/C (second compound 3.16 µM, first compound 10 µM) was 65.5% and the viability, T/C (second compound 10 µM, first compound 0.0316 µM) was 95.8%. For the same compound, the viability, T/C (second compound 10 µM, first compound 0.1 µM) was 87%, the viability, T/C (second compound 10 µM, first compound 0.316 µM) was 70.5% and the viability, T/C (second compound 10 µM, first compound 1 µM) was 81.9%. For the same compound, the viability, T/C (second compound 10 µM, first compound 3.16 µM) was 73.2% and the viability, T/C (second compound 10 µM, first compound 10 µM) was 60.2%.

For Nc1ccccc1NC(=O)c1ccc(CNC(=O)OCc2cccnc2)cc1, the viability, T/C (compound 0.00949 µM) was 102% and 86.1%, the viability, T/C (compound 0.03 µM) was 81.6% and 80.2% and the viability, T/C (compound 0.0949 µM) was 63.8% and 59.6%. For the same compound, the viability, T/C (compound 0.3 µM) was 41.9% and 34.8%, the viability, T/C (compound 0.949 µM) was 23.9% and 19.3% and the viability, T/C (compound 3 µM) was 8.2% and 8.35%. The IC50 (curve of compound) was 195 nM and 153 nM.
